Measurements from PubChem BioAssay (NCI).
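48-hour exposure; five concentrations; linearly interpolated endpoints. GI50 marks 50% less growth. Definition used: TGI = concentration required for complete inhibition of growth.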

Columns and labels:
Experiment in all cases: NCI tumour cell line growth inhibition, 48 h
UO-31 renal = tested on: UO-31 renal
MOLT-4 leukemia = tested on: MOLT-4 leukemia
IGROV1 ovarian = tested on: IGROV1 ovarian
TK-10 renal = tested on: TK-10 renal
NCI-H226 lung = tested on: NCI-H226 lung
SR leukemia = tested on: SR leukemia
NCI-H23 lung = tested on: NCI-H23 lung
HT29 colon = tested on: HT29 colon
HS 578T breast = tested on: HS 578T breast
LOX IMVI melanoma = tested on: LOX IMVI melanoma

Compound | TGI (UO-31 renal) [µM] | TGI (MOLT-4 leukemia) [µM] | TGI (IGROV1 ovarian) [µM] | TGI (TK-10 renal) [µM] | TGI (NCI-H226 lung) [µM] | TGI (SR leukemia) [µM] | TGI (NCI-H23 lung) [µM] | TGI (HT29 colon) [µM] | TGI (HS 578T breast) [µM] | TGI (LOX IMVI melanoma) [µM] | GI50 (UO-31 renal) [µM] | GI50 (MOLT-4 leukemia) [µM] | GI50 (IGROV1 ovarian) [µM] | GI50 (TK-10 renal) [µM] | GI50 (HS 578T breast) [µM] | GI50 (LOX IMVI melanoma) [µM] | GI50 (HT29 colon) [µM] | GI50 (NCI-H226 lung) [µM] | GI50 (NCI-H23 lung) [µM]
CC(=O)OC1CCn2nnc(CO)c21 (stereo not given) | > 100 | > 100 | > 100 | > 100 | > 100 | > 100 | > 100 | > 100 | – | – | – | – | – | – | – | – | – | – | –
Cc1cc(=O)oc2c(C)c(O)ccc12 | > 100 | > 100 | > 100 | – | > 100 | > 100 | > 100 | > 100 | > 100 | > 100 | – | – | – | – | – | – | – | – | –
COc1ccc2c3c([nH]c2c1[N+](=O)[O-])C(C)N(Cc1ccc([N+](=O)[O-])cc1)CC3 (stereo not given) | > 100 | > 100 | > 100 | > 100 | 42.4 | > 100 | 44.5 | 35.3 | – | 26.8 | – | – | – | – | – | – | – | – | –
O=C1NC(=O)C(c2ccccc2Cl)=C1Nc1cc(Cl)c(O)c(Cl)c1 | > 25 | > 25 | > 25 | > 25 | – | – | – | > 25 | > 25 | > 25 | > 23.4 | 16 | > 25 | > 25 | 10.9 | 11.3 | 14.2 | – | –
CN1CC(=O)N(C)c2ncn(Cc3ccccc3)c2C1=O | > 100 | > 100 | > 100 | > 100 | – | > 100 | > 100 | > 100 | – | > 100 | – | – | – | – | – | – | – | – | –
COc1ccc(C(=O)C(C(=O)CC(=O)Nc2cccc(C(F)(F)F)c2)c2ccc(OC)cc2)cc1 (stereo not given) | > 100 | > 100 | > 100 | – | > 100 | > 100 | > 100 | > 100 | – | – | – | – | – | – | – | – | – | – | –
COc1ccc(-c2cc(=O)c3ccccc3o2)cc1N | > 100 | > 100 | > 100 | > 100 | > 100 | – | > 100 | > 100 | – | > 100 | – | – | – | – | – | – | – | – | –
COc1ccc(/C(COc2ccc3c(=O)c(-c4ccccc4)coc3c2)=N\O)cc1 | 27.7 | > 100 | 38.3 | 9.22 | 89 | – | 62.8 | > 44.5 | 44.6 | > 45.9 | 9.02 | 1.08 | 7.37 | 0.988 | 3.79 | 4.73 | 2.89 | 15.2 | 19.3
O=C(O)NC(c1ccccc1)C(NC(=O)c1ccccc1)c1ccccc1 (stereo not given) | – | – | > 100 | > 100 | – | > 100 | > 100 | > 100 | – | > 100 | – | – | – | – | – | – | – | – | –
c1cc(N2CCCN(c3ccc(C4=NCCCN4)cc3)CC2)ccc1C1=NCCCN1 | > 100 | > 100 | > 100 | > 100 | > 100 | – | > 100 | > 100 | > 100 | > 100 | > 100 | > 100 | > 100 | 52.5 | 77.7 | > 100 | > 100 | > 100 | > 100
